PMC8296573, “Synthesis and Biological Evaluation of Fingolimod Derivatives as Antibacterial Agents” (ACS Omega, 2021)
Converted amounts (≈) assume the structure as drawn. Like-named read-outs stand apart in the source and are kept apart here.

Experiments:
[1] = system: P. aeruginosa ATCC 9027; assay: Antibacterial activity, pre-exposure; assay type: cell-based, Pseudomonas aeruginosa; conditions: for Average inhibition %, biofilms viability / Average inhibition %, planktonic cells viability / inhibition at 50 µM / inhibition at 100 µM / inhibition at 150 µM / inhibition at 200 µM: P. aeruginosa ATCC 9027, pre-exposure, ± SD; for inhibition at 50 µM / inhibition at 100 µM / inhibition at 150 µM / inhibition at 200 µM: ATCC9027
Outline: (§1)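 Read-outs were turbidity and resazurin reduction for planktonic cells, and resazurin followed by crystal violet biomass (A595) for biofilms. Compounds were present from inoculation onward, with 18 h aerobic growth at 37 °C under shaking.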

[2] = system: S. aureus ATCC 25923; assay: Antibacterial activity, post-exposure on preformed 18-h-old biofilms; assay type: cell-based, Staphylococcus aureus; conditions: for Average inhibition %, biofilms viability / Average inhibition %, planktonic cells viability / inhibition at 25 µM / inhibition at 50 µM / inhibition at 100 µM / inhibition at 200 µM: ± SD; for inhibition at 25 µM / inhibition at 50 µM / inhibition at 100 µM / inhibition at 200 µM: Staphylococcus aureus; for inhibition at 25 µM: ATCC25923, 25 µM; for inhibition at 50 µM: ATCC25923, 50 µM; for inhibition at 100 µM: ATCC25923, 100 µM; for inhibition at 200 µM: ATCC25923, 200 µM
Outline: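 Biofilms grown 18 h without compound, medium then replaced and compound added for a further 24 h. Planktonic OD and resazurin (20 μM final) fluorescence (ex 560/em 590 nm) read; washed biofilms stained with 20 μM resazurin 30 min at 37 °C, then ethanol-fixed and crystal violet-stained, absorbance 595 nm.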

[3] = system: A. baumannii NCTC 13423; assay: Antibacterial activity, pre-exposure; assay type: cell-based, Acinetobacter baumannii; conditions: for Average inhibition %, biofilms viability / Average inhibition %, planktonic cells viability / inhibition at 10 µM / inhibition at 15 µM / inhibition at 25 µM / inhibition at 50 µM: A. baumannii NCTC 13423, pre-exposure, ± SD; for inhibition at 10 µM / inhibition at 15 µM / inhibition at 25 µM / inhibition at 50 µM / MIC: Acinetobacter baumannii, NCTC13423
Outline: as §1

[4] = system: S. aureus ATCC 25923; assay: Antibacterial activity, pre-exposure (planktonic cells and biofilm formation); assay type: cell-based, Staphylococcus aureus; conditions: for MIC / inhibition at 5 µM / inhibition at 10 µM / inhibition at 15 µM / inhibition at 25 µM: Staphylococcus aureus, ATCC25923; for inhibition at 5 µM / inhibition at 10 µM / inhibition at 15 µM / inhibition at 25 µM / Average inhibition %, biofilms viability / Average inhibition %, planktonic cells viability: pre-exposure, ± SD
Outline: as §1

[5] = read-out: Average inhibition %, biofilms biomass
[6] = read-out: Average inhibition %, planktonic cells turbidity
[7] = 10 µM, read-out: Average inhibition %, biofilms biomass
[8] = 10 µM, read-out: Average inhibition %, planktonic cells turbidity
[9] = 15 µM, read-out: Average inhibition %, biofilms biomass
[10] = 15 µM, read-out: Average inhibition %, planktonic cells turbidity
[11] = 25 µM, read-out: Average inhibition %, biofilms biomass
[12] = 25 µM, read-out: Average inhibition %, planktonic cells turbidity

CCCCCCCCc1ccc(C(O)CC(N)(CO)CO)cc1 (stereo not drawn) [Compound 54, 3-Amino-3-(hydroxymethyl)-1-(4-octylphenyl)butane-1,4-diol] was tested, and the “Average inhibition %, biofilms viability” value ([1]; 50 µM) was 22.2 ± 26.9%, the “Average inhibition %, planktonic cells viability” value ([1]; 50 µM) was 74 ± 11.2% and the “Average inhibition %, biofilms viability” value ([1]; 100 µM) was 98.9 ± 1.5%. For the same compound, the “Average inhibition %, planktonic cells viability” value ([1]; 100 µM) was 99.6 ± 0%, the “Average inhibition %, biofilms viability” value ([1]; 150 µM) was 97.5 ± 3.9% and the “Average inhibition %, planktonic cells viability” value ([1]; 150 µM) was 99.2 ± 0.8%. For the same compound, the “Average inhibition %, biofilms viability” value ([1]; 200 µM) was 99.7 ± 0.1%, the “Average inhibition %, planktonic cells viability” value ([1]; 200 µM) was 99.7 ± 0.1% and the MIC ([1]; Pseudomonas aeruginosa, ATCC9027, pre-exposure, Inactive = no activity up to 200 μM, > = some inhibition but no MIC reached, read-out: MIC P. aeruginosa ATCC 9027) was 50 to 100 µM (≈ 16.2 to 32.3 µg/mL). For the same compound, the MIC ([1]; Pseudomonas aeruginosa, ATCC9027, supplementary molecular formula strings sheet, read-out: MIC (P. aeruginosa)) was 100 µM (≈ 32.3 µg/mL), the inhibition at 50 µM ([1]; Pseudomonas aeruginosa, 50 µM, read-out: Average inhibition %, biofilms biomass) was 46.4 ± 22% and the inhibition at 50 µM ([1]; Pseudomonas aeruginosa, 50 µM, read-out: Average inhibition %, planktonic cells turbidity) was 76.9 ± 11.6%. It also gave an inhibition at 100 µM ([1]; Pseudomonas aeruginosa, 100 µM, read-out: Average inhibition %, biofilms biomass) of 96.7 ± 1.1%, an inhibition at 100 µM ([1]; Pseudomonas aeruginosa, 100 µM, read-out: Average inhibition %, planktonic cells turbidity) of 98.2 ± 0.5% and an inhibition at 150 µM ([1]; Pseudomonas aeruginosa, 150 µM, read-out: Average inhibition %, biofilms biomass) of 90.9 ± 7.2%. It also gave an inhibition at 150 µM ([1]; Pseudomonas aeruginosa, 150 µM, read-out: Average inhibition %, planktonic cells turbidity) of 94.4 ± 1.4%, an inhibition at 200 µM ([1]; Pseudomonas aeruginosa, 200 µM, read-out: Average inhibition %, biofilms biomass) of 94.1 ± 1.7% and an inhibition at 200 µM ([1]; Pseudomonas aeruginosa, 200 µM, read-out: Average inhibition %, planktonic cells turbidity) of 94.1 ± 1.3%. The MIC ([1]; pre-exposure, Inactive = no activity up to 200 μM, > = some inhibition but no MIC reached, read-out: MIC P. aeruginosa ATCC 9027) was 100 µM (≈ 32.3 µg/mL), the “Average inhibition %, biofilms viability” value ([2]; 25 µM) was 11.2 ± 0.8% and the “Average inhibition %, planktonic cells viability” value ([2]; 25 µM) was 15 ± 26.1%. The “Average inhibition %, biofilms viability” value ([2]; 50 µM) was 23.6 ± 12.7%, the “Average inhibition %, planktonic cells viability” value ([2]; 50 µM) was 0 ± 0% and the “Inhibition of viability and total biomass of preformed biofilms” value ([2]; 100 μM) was “at least 70%”. The “Average inhibition %, biofilms viability” value ([2]; 100 µM) was 82.1 ± 27.3%, the “Average inhibition %, planktonic cells viability” value ([2]; 100 µM) was 97.9 ± 3.4% and the “Average inhibition %, biofilms viability” value ([2]; 200 µM) was 99.8 ± 0.2%. The “Average inhibition %, planktonic cells viability” value ([2]; 200 µM) was 100.1 ± 0.2%, the inhibition at 25 µM [2, 5] was 44 ± 14.9% and the inhibition at 25 µM [2, 6] was 5.1 ± 6.4%. It also gave an inhibition at 50 µM [2, 5] of 55.3 ± 3%, an inhibition at 50 µM [2, 6] of 17.4 ± 3.4% and an inhibition at 100 µM [2, 5] of 83.5 ± 19%. For the same compound, the inhibition at 100 µM [2, 6] was 82.6 ± 4.7%, the inhibition at 200 µM [2, 5] was 86.4 ± 3.9% and the inhibition at 200 µM [2, 6] was 83.6 ± 3.7%. The “Average inhibition %, biofilms viability” value ([3]; 10 µM) was 0 ± 0%, the “Average inhibition %, planktonic cells viability” value ([3]; 10 µM) was 4.7 ± 2.4% and the “Average inhibition %, biofilms viability” value ([3]; 15 µM) was 1.2 ± 2.1%. For the same compound, the “Average inhibition %, planktonic cells viability” value ([3]; 15 µM) was 6.4 ± 4.2%, the “Average inhibition %, biofilms viability” value ([3]; 25 µM) was 6.1 ± 6.8% and the “Average inhibition %, planktonic cells viability” value ([3]; 25 µM) was 3.3 ± 4.4%. The “Average inhibition %, biofilms viability” value ([3]; 50 µM) was 100.2 ± 0.8%, the “Average inhibition %, planktonic cells viability” value ([3]; 50 µM) was 99.4 ± 0.2% and the inhibition at 10 µM [3, 7] was 2.3 ± 4.1%. It also gave an inhibition at 10 µM [3, 8] of 0%, an inhibition at 15 µM [3, 9] of 1.5 ± 1.3% and an inhibition at 15 µM [3, 10] of 0%. It also gave an inhibition at 25 µM [3, 11] of 6.1 ± 8.1%, an inhibition at 25 µM [3, 12] of 0% and an inhibition at 50 µM ([3]; 50 µM, read-out: Average inhibition %, biofilms biomass) of 81.2 ± 8.8%. The inhibition at 50 µM ([3]; 50 µM, read-out: Average inhibition %, planktonic cells turbidity) was 99 ± 1%, the MIC ([3]; pre-exposure, Inactive = no activity up to 50 μM, > = some inhibition but no MIC reached, read-out: MIC A. baumannii NCTC 13423) was 50 µM (≈ 16.2 µg/mL) and the MIC ([3]; supplementary molecular formula strings sheet, read-out: MIC (A. baumannii)) was 50 µM (≈ 16.2 µg/mL). For the same compound, the MIC ([4]; lowest concentration with no visible growth (>90% inhibition of turbidity and viability of planktonic cells), 18 h, read-out: MIC S. aureus ATCC 25923) was 25 µM (≈ 8.09 µg/mL), the inhibition at 5 µM ([4]; 5 µM, read-out: Average inhibition %, biofilms biomass) was 21.2 ± 18.4% and the inhibition at 5 µM ([4]; 5 µM, read-out: Average inhibition %, planktonic cells turbidity) was 34.1 ± 32.1%. The inhibition at 10 µM [4, 7] was 23.7 ± 8.7%, the inhibition at 10 µM [4, 8] was 38.3 ± 27% and the inhibition at 15 µM [4, 9] was 39.3 ± 23.6%. For the same compound, the inhibition at 15 µM [4, 10] was 44.1 ± 23.3%, the inhibition at 25 µM [4, 11] was 93.7 ± 4.1% and the inhibition at 25 µM [4, 12] was 98.8 ± 1%. For the same compound, the MIC ([4]; read-out: MIC (S. aureus)) was 25 µM (≈ 8.09 µg/mL), the “Average inhibition %, biofilms viability” value ([4]; 5 µM) was 21.2 ± 4.7% and the “Average inhibition %, planktonic cells viability” value ([4]; 5 µM) was 11.9 ± 20.6%. For the same compound, the “Average inhibition %, biofilms viability” value ([4]; 10 µM) was 28.3 ± 15.2%, the “Average inhibition %, planktonic cells viability” value ([4]; 10 µM) was 10.2 ± 17.7% and the “Average inhibition %, biofilms viability” value ([4]; 15 µM) was 28.6 ± 10.1%. The “Average inhibition %, planktonic cells viability” value ([4]; 15 µM) was 8.5 ± 14.7%, the “Average inhibition %, biofilms viability” value ([4]; 25 µM) was 99.5 ± 0.6% and the “Average inhibition %, planktonic cells viability” value ([4]; 25 µM) was 99.8 ± 0.1%.
